{"source": "ChEMBL document CHEMBL4229435", "about": "“Synthesis and antimicrobial activity of β-carboline derivatives with N2-alkyl modifications” (2018)", "format_in_all_cases": "functional", "key": {"Staphylococcus aureus [1]": {"tested_on": "Staphylococcus aureus", "assay": "Antimicrobial activity against methicillin-resistant Staphylococcus aureus GAI 11112 after 24 hrs by agar plate dilution method", "details": "GAI 11112, 24 h"}, "Candida albicans": {"tested_on": "Candida albicans", "assay": "Antimicrobial activity against Candida albicans GAI 05108 after 24 hrs by agar plate dilution method", "details": "GAI 05108, 24 h"}, "[Candida] intermedia": {"tested_on": "[Candida] intermedia", "assay": "Antimicrobial activity against Candida intermedia GAI 15003 after 24 hrs by agar plate dilution method", "details": "Sungouiella intermedia, GAI 15003, 24 h"}, "Staphylococcus aureus [2]": {"tested_on": "Staphylococcus aureus", "assay": "Antimicrobial activity against methicillin-sensitive Staphylococcus aureus ATCC 25923 after 24 hrs by agar plate dilution method", "details": "ATCC 25923, 24 h"}, "Escherichia coli": {"tested_on": "Escherichia coli", "assay": "Antimicrobial activity against Escherichia coli ATCC 25922 after 24 hrs by agar plate dilution method", "details": "ATCC 25922, 24 h"}, "Pichia kudriavzevii": {"tested_on": "Pichia kudriavzevii", "assay": "Antimicrobial activity against Candida krusei ATCC 14243 after 24 hrs by agar plate dilution method", "details": "ATCC 14243, 24 h"}, "Pseudomonas aeruginosa": {"tested_on": "Pseudomonas aeruginosa", "assay": "Antimicrobial activity against Pseudomonas aeruginosa GAI 12066 after 24 hrs by agar plate dilution method", "details": "GAI 12066, 24 h"}, "Staphylococcus aureus [3]": {"tested_on": "Staphylococcus aureus", "assay": "Antimicrobial activity against methicillin-resistant Staphylococcus aureus GAI 10153 after 24 hrs by agar plate dilution method", "details": "GAI 10153, 24 h"}, "Acinetobacter baumannii": {"tested_on": "Acinetobacter baumannii", "assay": "Antimicrobial activity against Acinetobacter baumannii GAI 07545 after 24 hrs by agar plate dilution method", "details": "GAI 07545, 24 h"}, "Staphylococcus aureus [4]": {"tested_on": "Staphylococcus aureus", "assay": "Antimicrobial activity against methicillin-resistant Staphylococcus aureus GAI 10151 after 24 hrs by agar plate dilution method", "details": "GAI 10151, 24 h"}, "Staphylococcus aureus [5]": {"tested_on": "Staphylococcus aureus", "assay": "Antimicrobial activity against methicillin-resistant Staphylococcus aureus GAI 10152 after 24 hrs by agar plate dilution method", "details": "GAI 10152, 24 h"}}, "data": [{"smiles": "C[n+]1ccc2c3ccccc3n(-n3c4ccccc4c4cc[n+](C)cc43)c2c1", "values": [{"measurement": "MIC", "setting": "Staphylococcus aureus [1]", "value": 125, "unit": "µM"}, {"measurement": "MIC", "setting": "Candida albicans", "value": 500, "unit": "µM"}, {"measurement": "MIC", "setting": "[Candida] intermedia", "value": 125, "unit": "µM"}, {"measurement": "MIC", "setting": "Staphylococcus aureus [2]", "value": 125, "unit": "µM"}, {"measurement": "MIC", "setting": "Escherichia coli", "value": 1000, "unit": "µM"}, {"measurement": "MIC", "setting": "Pichia kudriavzevii", "value": 500, "unit": "µM"}]}, {"smiles": "Clc1ccc2c(c1)c1cc[n+](Cc3ccccn3)cc1n2-n1c2ccc(Cl)cc2c2cc[n+](Cc3ccccn3)cc21", "values": [{"measurement": "MIC", "setting": "Pseudomonas aeruginosa", "value": "> 1000", "unit": "µM"}, {"measurement": "MIC", "setting": "Staphylococcus aureus [3]", "value": "> 1000", "unit": "µM"}, {"measurement": "MIC", "setting": "Acinetobacter baumannii", "value": "> 1000", "unit": "µM"}, {"measurement": "MIC", "setting": "Staphylococcus aureus [4]", "value": "> 1000", "unit": "µM"}, {"measurement": "MIC", "setting": "Staphylococcus aureus [5]", "value": "> 1000", "unit": "µM"}, {"measurement": "MIC", "setting": "Candida albicans", "value": "> 1000", "unit": "µM"}, {"measurement": "MIC", "setting": "[Candida] intermedia", "value": 500, "unit": "µM"}, {"measurement": "MIC", "setting": "Staphylococcus aureus [2]", "value": "> 1000", "unit": "µM"}, {"measurement": "MIC", "setting": "Escherichia coli", "value": "> 1000", "unit": "µM"}, {"measurement": "MIC", "setting": "Pichia kudriavzevii", "value": "> 1000", "unit": "µM"}]}, {"smiles": "Clc1ccc2c(c1)c1cc[n+](Cc3ccccc3)cc1n2-n1c2ccc(Cl)cc2c2cc[n+](Cc3ccccc3)cc21", "values": [{"measurement": "MIC", "setting": "Pseudomonas aeruginosa", "value": "> 1000", "unit": "µM"}, {"measurement": "MIC", "setting": "Staphylococcus aureus [3]", "value": 10, "unit": "µM"}, {"measurement": "MIC", "setting": "Acinetobacter baumannii", "value": 500, "unit": "µM"}, {"measurement": "MIC", "setting": "Staphylococcus aureus [4]", "value": 50, "unit": "µM"}, {"measurement": "MIC", "setting": "Staphylococcus aureus [5]", "value": 10, "unit": "µM"}, {"measurement": "MIC", "setting": "Candida albicans", "value": 500, "unit": "µM"}, {"measurement": "MIC", "setting": "[Candida] intermedia", "value": 10, "unit": "µM"}, {"measurement": "MIC", "setting": "Staphylococcus aureus [2]", "value": 10, "unit": "µM"}, {"measurement": "MIC", "setting": "Escherichia coli", "value": 500, "unit": "µM"}, {"measurement": "MIC", "setting": "Pichia kudriavzevii", "value": 500, "unit": "µM"}]}, {"smiles": "C[n+]1ccc2c3cc(Cl)ccc3n(-n3c4ccc(Cl)cc4c4cc[n+](C)cc43)c2c1", "values": [{"measurement": "MIC", "setting": "Pseudomonas aeruginosa", "value": "> 1000", "unit": "µM"}, {"measurement": "MIC", "setting": "Staphylococcus aureus [3]", "value": 50, "unit": "µM"}, {"measurement": "MIC", "setting": "Acinetobacter baumannii", "value": "> 1000", "unit": "µM"}, {"measurement": "MIC", "setting": "Staphylococcus aureus [4]", "value": 500, "unit": "µM"}, {"measurement": "MIC", "setting": "Staphylococcus aureus [5]", "value": 50, "unit": "µM"}, {"measurement": "MIC", "setting": "Candida albicans", "value": "> 1000", "unit": "µM"}, {"measurement": "MIC", "setting": "[Candida] intermedia", "value": 50, "unit": "µM"}, {"measurement": "MIC", "setting": "Staphylococcus aureus [2]", "value": 50, "unit": "µM"}, {"measurement": "MIC", "setting": "Escherichia coli", "value": 500, "unit": "µM"}, {"measurement": "MIC", "setting": "Pichia kudriavzevii", "value": 500, "unit": "µM"}]}, {"smiles": "c1ccc2c(c1)c1ccncc1n2-n1c2ccccc2c2ccncc21", "values": [{"measurement": "MIC", "setting": "Staphylococcus aureus [1]", "value": "> 1000", "unit": "µM"}, {"measurement": "MIC", "setting": "Candida albicans", "value": "> 1000", "unit": "µM"}, {"measurement": "MIC", "setting": "[Candida] intermedia", "value": 125, "unit": "µM"}, {"measurement": "MIC", "setting": "Staphylococcus aureus [2]", "value": "> 1000", "unit": "µM"}, {"measurement": "MIC", "setting": "Escherichia coli", "value": "> 1000", "unit": "µM"}, {"measurement": "MIC", "setting": "Pichia kudriavzevii", "value": "> 1000", "unit": "µM"}]}, {"smiles": "Clc1ccc2[nH]c3c[n+](Cc4ccccn4)ccc3c2c1", "values": [{"measurement": "MIC", "setting": "Pseudomonas aeruginosa", "value": "> 1000", "unit": "µM"}, {"measurement": "MIC", "setting": "Staphylococcus aureus [3]", "value": "> 1000", "unit": "µM"}, {"measurement": "MIC", "setting": "Acinetobacter baumannii", "value": "> 1000", "unit": "µM"}, {"measurement": "MIC", "setting": "Staphylococcus aureus [4]", "value": "> 1000", "unit": "µM"}, {"measurement": "MIC", "setting": "Staphylococcus aureus [5]", "value": "> 1000", "unit": "µM"}, {"measurement": "MIC", "setting": "Candida albicans", "value": "> 1000", "unit": "µM"}, {"measurement": "MIC", "setting": "[Candida] intermedia", "value": 500, "unit": "µM"}, {"measurement": "MIC", "setting": "Staphylococcus aureus [2]", "value": "> 1000", "unit": "µM"}, {"measurement": "MIC", "setting": "Escherichia coli", "value": "> 1000", "unit": "µM"}, {"measurement": "MIC", "setting": "Pichia kudriavzevii", "value": "> 1000", "unit": "µM"}]}, {"smiles": "C[n+]1ccc2c(c1)[nH]c1ccccc12", "values": [{"measurement": "MIC", "setting": "Staphylococcus aureus [1]", "value": 1000, "unit": "µM"}, {"measurement": "MIC", "setting": "Candida albicans", "value": 500, "unit": "µM"}, {"measurement": "MIC", "setting": "[Candida] intermedia", "value": 125, "unit": "µM"}, {"measurement": "MIC", "setting": "Staphylococcus aureus [2]", "value": "> 1000", "unit": "µM"}, {"measurement": "MIC", "setting": "Escherichia coli", "value": 1000, "unit": "µM"}, {"measurement": "MIC", "setting": "Pichia kudriavzevii", "value": 125, "unit": "µM"}]}, {"smiles": "Clc1ccc2[nH]c3c[n+](Cc4ccccc4)ccc3c2c1", "values": [{"measurement": "MIC", "setting": "Pseudomonas aeruginosa", "value": "> 1000", "unit": "µM"}, {"measurement": "MIC", "setting": "Staphylococcus aureus [3]", "value": 500, "unit": "µM"}, {"measurement": "MIC", "setting": "Acinetobacter baumannii", "value": 500, "unit": "µM"}, {"measurement": "MIC", "setting": "Staphylococcus aureus [4]", "value": 500, "unit": "µM"}, {"measurement": "MIC", "setting": "Staphylococcus aureus [5]", "value": 500, "unit": "µM"}, {"measurement": "MIC", "setting": "Candida albicans", "value": "> 1000", "unit": "µM"}, {"measurement": "MIC", "setting": "[Candida] intermedia", "value": 10, "unit": "µM"}, {"measurement": "MIC", "setting": "Staphylococcus aureus [2]", "value": "> 1000", "unit": "µM"}, {"measurement": "MIC", "setting": "Escherichia coli", "value": "> 1000", "unit": "µM"}, {"measurement": "MIC", "setting": "Pichia kudriavzevii", "value": 500, "unit": "µM"}]}, {"smiles": "c1ccc2c(c1)[nH]c1cnccc12", "note": "[NORHARMANE]", "values": [{"measurement": "MIC", "setting": "Staphylococcus aureus [1]", "value": 250, "unit": "µM"}, {"measurement": "MIC", "setting": "Candida albicans", "value": 125, "unit": "µM"}, {"measurement": "MIC", "setting": "[Candida] intermedia", "value": 125, "unit": "µM"}, {"measurement": "MIC", "setting": "Staphylococcus aureus [2]", "value": "> 1000", "unit": "µM"}, {"measurement": "MIC", "setting": "Escherichia coli", "value": 250, "unit": "µM"}, {"measurement": "MIC", "setting": "Pichia kudriavzevii", "value": 125, "unit": "µM"}]}, {"smiles": "C[n+]1ccc2c(c1)[nH]c1ccc(Cl)cc12", "note": "[NOSTOCARBOLINE]", "values": [{"measurement": "MIC", "setting": "Pseudomonas aeruginosa", "value": "> 1000", "unit": "µM"}, {"measurement": "MIC", "setting": "Staphylococcus aureus [3]", "value": "> 1000", "unit": "µM"}, {"measurement": "MIC", "setting": "Acinetobacter baumannii", "value": "> 1000", "unit": "µM"}, {"measurement": "MIC", "setting": "Staphylococcus aureus [4]", "value": "> 1000", "unit": "µM"}, {"measurement": "MIC", "setting": "Staphylococcus aureus [5]", "value": "> 1000", "unit": "µM"}, {"measurement": "MIC", "setting": "Candida albicans", "value": "> 1000", "unit": "µM"}, {"measurement": "MIC", "setting": "[Candida] intermedia", "value": "> 1000", "unit": "µM"}, {"measurement": "MIC", "setting": "Staphylococcus aureus [2]", "value": "> 1000", "unit": "µM"}, {"measurement": "MIC", "setting": "Escherichia coli", "value": 500, "unit": "µM"}, {"measurement": "MIC", "setting": "Pichia kudriavzevii", "value": 50, "unit": "µM"}]}]}
